Patent publication US20100298141A1, “SUBSTITUTED PYRIDINE N-OXIDE HERBICIDES” (E. I. DU PONT DE NEMOURS AND COMPANY, priority 2007, published 2010)

What was measured:
[1] = tested on: barnyardgrass; experiment: Test A pre-/postemergence greenhouse test; type: in vivo, Echinochloa crus-galli; conditions: for Barnyardgrass plant response rating: 0 to 100 scale; for Plant response rating, Barnyardgrass: 0 to 100 scale where 0 is no effect and 100 is complete control
In short: (§1)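 Two application timings were run side by side in the greenhouse. Before emergence, compound went onto the soil surface of loam–sand pots as a directed spray; after emergence, plants at 2–10 cm and the one- to two-leaf stage were treated. Visual injury versus controls was rated at approximately day ten.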

[2] = tested on: giant foxtail; experiment: Test A pre-/postemergence greenhouse test; type: in vivo, Setaria faberi; conditions: for Foxtail, Giant plant response rating: 0 to 100 scale; for Plant response rating, Foxtail, Giant: 0 to 100 scale where 0 is no effect and 100 is complete control
In short: as §1

[3] = tested on: morningglory; experiment: Test A pre-/postemergence greenhouse test; type: in vivo, Ipomoea spp.; conditions: for Morningglory plant response rating: 0 to 100 scale; for Plant response rating, Morningglory: 0 to 100 scale where 0 is no effect and 100 is complete control
In short: as §1

[4] = tested on: redroot pigweed; experiment: Test A pre-/postemergence greenhouse test; type: in vivo, Amaranthus retroflexus; conditions: for Pigweed plant response rating: 0 to 100 scale; for Plant response rating, Pigweed: 0 to 100 scale where 0 is no effect and 100 is complete control
In short: as §1

[5] = tested on: wheat; experiment: Test A pre-/postemergence greenhouse test; type: in vivo, Triticum aestivum; conditions: for Wheat plant response rating: 0 to 100 scale; for Plant response rating, Wheat: 0 to 100 scale where 0 is no effect and 100 is complete control
In short: as §1

[6] = tested on: corn; experiment: Test A pre-/postemergence greenhouse test; type: in vivo, Zea mays; conditions: for Corn plant response rating: 0 to 100 scale; for Plant response rating, Corn: 0 to 100 scale where 0 is no effect and 100 is complete control
In short: as §1

[7] = tested on: wheat; experiment: Test C pre-/postemergence test; type: in vivo, Triticum aestivum; conditions: for Plant response rating, Wheat: 31 g ai/ha, scale 0 to 100 (0 no effect, 100 complete control)
In short: (§2)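 Compounds in a non-phytotoxic solvent with surfactant applied preemergence to seeded pots and, at the same time, postemergence to plants 2–18 cm tall (1- to 4-leaf stage). Paddy tests: pots flooded to 3 cm, compound applied into the water, depth held throughout.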

[8] = tested on: bermudagrass; experiment: Test C pre-/postemergence test; type: in vivo, Cynodon dactylon; conditions: for Plant response rating, Bermudagrass: 31 g ai/ha
In short: as §2

[9] = tested on: Surinam grass; experiment: Test C pre-/postemergence test; type: in vivo, Brachiaria decumbens; conditions: for Plant response rating, Surinam Grass: 31 g ai/ha, scale 0 to 100 (0 no effect, 100 complete control)
In short: as §2

[10] = tested on: crabgrass; experiment: Test C pre-/postemergence test; type: in vivo, Digitaria sanguinalis; conditions: for Plant response rating, Crabgrass, Large: 31 g ai/ha, scale 0 to 100 (0 no effect, 100 complete control)
In short: as §2

[11] = tested on: Goosegrass; experiment: Test C pre-/postemergence test; type: in vivo, Eleusin indica; conditions: for Plant response rating, Goosegrass: 31 g ai/ha, scale 0 to 100 (0 no effect, 100 complete control)
In short: as §2

[12] = tested on: lambsquarters; experiment: Test C pre-/postemergence test; type: in vivo, Chenopodium album; conditions: for Plant response rating, Lambsquarters: 31 g ai/ha, scale 0 to 100 (0 no effect, 100 complete control)
In short: as §2

[13] = tested on: eastern black nightshade; experiment: Test C pre-/postemergence test; type: in vivo, Solanum ptycanthum; conditions: for Plant response rating, Nightshade: 31 g ai/ha, scale 0 to 100 (0 no effect, 100 complete control)
In short: as §2

[14] = tested on: pigweed; experiment: Test C pre-/postemergence test; type: in vivo, Amaranthus retroflexus; conditions: for Plant response rating, Pigweed: 31 g ai/ha, scale 0 to 100 (0 no effect, 100 complete control)
In short: as §2

[15] = tested on: common (oilseed) sunflower; experiment: Test C pre-/postemergence test; type: in vivo, Helianthus annuus
In short: as §2

[16] = tested on: rice; experiment: Test C flooded paddy test; type: in vivo, Oryza sativa; conditions: Flood
In short: (§3)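 Test compounds are applied straight into paddy water held 3 cm above the soil surface, with that flood maintained for the whole test. After 13 to 15 days in the greenhouse, each species is scored visually relative to controls.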

[17] = tested on: umbrella sedge; experiment: Test C flooded paddy test; type: in vivo, Cyperus difformis; conditions: Flood
In short: as §3

[18] = Postemergence, 125 g ai/ha, 0 is no effect, 100 is complete control
[19] = Postemergence, 500 g ai/ha, 0 is no effect, 100 is complete control
[20] = Preemergence, 125 g ai/ha, 0 no effect, 100 complete control
[21] = 62 g ai/ha, Preemergence, scale 0 to 100
[22] = 125 g ai/ha, preemergence, scale 0 (no effect) to 100 (complete control)
[23] = preemergence, 250 g ai/ha, scale 0 (no effect) to 100 (complete control)
[24] = 62 g ai/ha, Preemergence, scale 0 to 100 (0 no effect, 100 complete control)
[25] = Preemergence, scale 0 to 100 (0 no effect, 100 complete control)
[26] = 31 g ai/ha, scale 0 to 100 (0 no effect, 100 complete control)
[27] = 62 g ai/ha, scale 0 to 100, 0 no effect, 100 complete control, 13 to 15 days
[28] = 125 g ai/ha, scale 0 to 100, 0 no effect, 100 complete control, 13 to 15 days
[29] = 250 g ai/ha, scale 0 to 100, 0 no effect, 100 complete control, 13 to 15 days

Cn1nc(C(F)(F)F)c(C[S+]([O-])c2cc(F)cc[n+]2[O-])c1Cl (racemic) [Compound 42]
Barnyardgrass plant response rating [1, 18]: 70
Barnyardgrass plant response rating [1, 19]: 80
Barnyardgrass plant response rating [1, 20]: 80
Plant response rating, Barnyardgrass ([1]; Preemergence, 500 g ai/ha): 100
Foxtail, Giant plant response rating [2, 18]: 80
Foxtail, Giant plant response rating [2, 19]: 90
Foxtail, Giant plant response rating [2, 20]: 100
Plant response rating, Foxtail, Giant ([2]; Preemergence, 500 g ai/ha): 100
Morningglory plant response rating [3, 18]: 40
Morningglory plant response rating [3, 19]: 90
Morningglory plant response rating [3, 20]: 30
Plant response rating, Morningglory ([3]; Preemergence, 500 g ai/ha): 90
Pigweed plant response rating [4, 18]: 60
Pigweed plant response rating [4, 19]: 70
Pigweed plant response rating [4, 20]: 100
Plant response rating, Pigweed ([4]; Preemergence, 500 g ai/ha): 100
Wheat plant response rating [5, 18]: 40
Wheat plant response rating [5, 19]: 50
Wheat plant response rating [5, 20]: 20
Plant response rating, Wheat ([5]; Preemergence, 500 g ai/ha): 60
Corn plant response rating [6, 18]: 0
Corn plant response rating [6, 19]: 70
Corn plant response rating [6, 20]: 0
Plant response rating, Corn ([6]; Preemergence, 500 g ai/ha): 0
Wheat plant response rating [7, 21]: 0
Wheat plant response rating [7, 22]: 10
Plant response rating, Wheat ([7]; Preemergence): 0
Wheat plant response rating [7, 23]: 70
Bermudagrass plant response rating [8, 24]: 100
Bermudagrass plant response rating [8, 22]: 100
Plant response rating, Bermudagrass [8, 25]: 70
Bermudagrass plant response rating [8, 23]: 100
Surinam Grass plant response rating [9, 21]: 80
Surinam Grass plant response rating [9, 22]: 85
Plant response rating, Surinam Grass ([9]; Preemergence): 60
Surinam Grass plant response rating [9, 23]: 100
Crabgrass, Large plant response rating [10, 21]: 100
Crabgrass, Large plant response rating [10, 22]: 100
Plant response rating, Crabgrass, Large ([10]; Preemergence): 95
Crabgrass, Large plant response rating [10, 23]: 100
Goosegrass plant response rating [11, 21]: 100
Goosegrass plant response rating [11, 22]: 100
Plant response rating, Goosegrass ([11]; Preemergence): 85
Goosegrass plant response rating [11, 23]: 100
Lambsquarters plant response rating [12, 21]: 100
Lambsquarters plant response rating [12, 22]: 100
Plant response rating, Lambsquarters ([12]; Preemergence): 80
Lambsquarters plant response rating [12, 23]: 100
Nightshade plant response rating [13, 21]: 80
Nightshade plant response rating [13, 22]: 100
Plant response rating, Nightshade ([13]; Preemergence): 80
Nightshade plant response rating [13, 23]: 100
Pigweed plant response rating [14, 21]: 100
Pigweed plant response rating [14, 22]: 100
Plant response rating, Pigweed ([14]; Preemergence): 100
Pigweed plant response rating [14, 23]: 100
Sunflower plant response rating [15, 21]: 0
Sunflower plant response rating [15, 22]: 30
Plant response rating, Sunflower ([15]; Preemergence, 31 g ai/ha, scale 0 to 100 (0 no effect, 100 complete control)): 0
Sunflower plant response rating [15, 23]: 80
Plant response rating, Rice [16, 26]: 0
Plant response rating, Rice [16, 27]: 15
Plant response rating, Rice [16, 28]: 25
Plant response rating, Rice [16, 29]: 70
Plant response rating, Sedge, Umbrella [17, 26]: 80
Plant response rating, Sedge, Umbrella [17, 27]: 85
Plant response rating, Sedge, Umbrella [17, 28]: 90
Plant response rating, Sedge, Umbrella [17, 29]: 95

CC(c1c(C(F)(F)F)nn(C)c1OCC(F)(F)F)S(=O)(=O)c1cccc[n+]1[O-] (racemic) [Compound 33]
Barnyardgrass plant response rating [1, 18]: 70
Barnyardgrass plant response rating [1, 19]: 100
Barnyardgrass plant response rating [1, 20]: 100
Plant response rating, Barnyardgrass ([1]; Preemergence, 500 g ai/ha): 100
Foxtail, Giant plant response rating [2, 18]: 90
Foxtail, Giant plant response rating [2, 19]: 90
Foxtail, Giant plant response rating [2, 20]: 100
Plant response rating, Foxtail, Giant ([2]; Preemergence, 500 g ai/ha): 100
Morningglory plant response rating [3, 18]: 60
Morningglory plant response rating [3, 19]: 90
Morningglory plant response rating [3, 20]: 90
Plant response rating, Morningglory ([3]; Preemergence, 500 g ai/ha): 90
Pigweed plant response rating [4, 18]: 60
Pigweed plant response rating [4, 19]: 90
Pigweed plant response rating [4, 20]: 100
Plant response rating, Pigweed ([4]; Preemergence, 500 g ai/ha): 100
Wheat plant response rating [5, 18]: 60
Wheat plant response rating [5, 19]: 70
Wheat plant response rating [5, 20]: 60
Plant response rating, Wheat ([5]; Preemergence, 500 g ai/ha): 100
Corn plant response rating [6, 18]: 50
Corn plant response rating [6, 19]: 70
Corn plant response rating [6, 20]: 70
Plant response rating, Corn ([6]; Preemergence, 500 g ai/ha): 80
Wheat plant response rating [7, 21]: 50
Plant response rating, Wheat ([7]; Preemergence): 30
Bermudagrass plant response rating [8, 24]: 100
Plant response rating, Bermudagrass [8, 25]: 100
Plant response rating (0 to 100), Bermudagrass ([8]; Preemergence, 250 g ai/ha): 100
Bermudagrass plant response rating ([8]; preemergence, 125 g ai/ha, scale 0 (no effect) to 100 (complete control)): 100
Surinam Grass plant response rating [9, 21]: 100
Plant response rating, Surinam Grass ([9]; Preemergence): 80
Crabgrass, Large plant response rating [10, 21]: 100
Plant response rating, Crabgrass, Large ([10]; Preemergence): 100
Plant response rating (0 to 100), Crabgrass, Large ([10]; Preemergence, 250 g ai/ha): 100
Goosegrass plant response rating [11, 21]: 100
Plant response rating, Goosegrass ([11]; Preemergence): 100
Plant response rating (0 to 100), Goosegrass ([11]; Preemergence, 250 g ai/ha): 100
Lambsquarters plant response rating [12, 21]: 100
Plant response rating, Lambsquarters ([12]; Preemergence): 90
Nightshade plant response rating [13, 21]: 85
Plant response rating, Nightshade ([13]; Preemergence): 70
Pigweed plant response rating [14, 21]: 100
Plant response rating, Pigweed ([14]; Preemergence): 100
Sunflower plant response rating [15, 21]: 0
Plant response rating, Rice [16, 26]: 0
Plant response rating, Rice [16, 27]: 0
Plant response rating, Rice [16, 28]: 30
Plant response rating, Rice [16, 29]: 75
Plant response rating, Sedge, Umbrella [17, 26]: 80
Plant response rating, Sedge, Umbrella [17, 27]: 90
Plant response rating, Sedge, Umbrella [17, 28]: 95
Plant response rating, Sedge, Umbrella [17, 29]: 95
